pIC50: −log10 of the molar value. Structures can show the parent of a compound that is named as a salt.
What was measured:
AKT1 = AKT1 (Homo sapiens, UniProt P31749); experiment: In vitro enzyme activity test (HTRF kinEASE TK), AKT1; format: biochemical; conditions: ATP 2 μM, enzyme 0.6 ng/well, reaction 50 min
Procedure: (§1) Experimental Procedure 2.1 Preparation of Reagents
(§2) 1 mL 1× Kinase Reaction Buffer of Kinase AKT1, AKT2 and AKT3 contain 200 μL 5× Kinase Reaction Buffer, 5 μL 1 M MgCl2, 1 μL 1 M DTT and 794 μL ultrapure water.
(§3) In addition to the control wells, 4 μL of the diluted compound working solutions were added to all reaction wells.
(§4) b) 2 μL of the previously prepared TK-biotin substrate solution was added to all reaction wells.
(§5) c) 2 μL of the previously prepared enzyme solution was added to all reaction wells, except the negative wells. The volume of the negative well was filled with 2 μL of enzyme corresponding to 1× kinase reaction buffer. The plate was sealed with sealing film. After mixing, the plate was incubated at room temperature for 10 min to allow the compound and enzyme to fully combined.
(§6) d) 2 μL of ATP solution was added to all reaction wells to start the kinase reaction.
(§7) e) The test solution was prepared 5 min before the end of the kinase reaction.
(§8) f) After the kinase reaction was completed, 5 μL of diluted streptavidin-XL665 were added to all reaction wells, and immediately the diluted europium-labeled tyrosine kinase substrate antibody detection solution was added after mixing.
(§9) g) The plate was sealed and mixed well. […] The inhibition rate of each well was calculated through the fully active wells and the background signal wells, taking the average value in case of multiple wells. Meanwhile, the professional drawing analysis software PRISM 6.0 was used to fit the half maximal inhibitory concentration (IC50) of each test compound.

AKT3 = target: T1, AKT3 (Homo sapiens, UniProt Q9Y243); experiment: In vitro enzyme activity test (HTRF kinEASE TK), AKT3; format: biochemical; conditions: enzyme 0.3 ng/well, reaction 50 min
T1 construct: purchased Invitrogen PV3185
Procedure: as §1, §2, §3, §4, §5, §6, §7, §8, §9

Sequence of AKT1 (P31749 whole entry): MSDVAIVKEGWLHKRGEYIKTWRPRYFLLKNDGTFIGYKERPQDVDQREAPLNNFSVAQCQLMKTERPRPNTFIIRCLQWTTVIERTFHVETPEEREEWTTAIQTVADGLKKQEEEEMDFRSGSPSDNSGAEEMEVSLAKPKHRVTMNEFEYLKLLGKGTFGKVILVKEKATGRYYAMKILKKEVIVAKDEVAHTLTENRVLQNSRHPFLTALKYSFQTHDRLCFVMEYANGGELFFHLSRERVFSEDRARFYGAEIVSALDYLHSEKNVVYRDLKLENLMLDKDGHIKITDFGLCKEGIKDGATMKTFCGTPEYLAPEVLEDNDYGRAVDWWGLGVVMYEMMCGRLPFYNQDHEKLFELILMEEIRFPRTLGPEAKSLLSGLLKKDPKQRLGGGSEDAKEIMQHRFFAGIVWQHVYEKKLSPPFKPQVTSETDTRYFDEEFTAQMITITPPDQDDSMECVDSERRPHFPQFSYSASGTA
T1 sequence (Q9Y243 whole entry): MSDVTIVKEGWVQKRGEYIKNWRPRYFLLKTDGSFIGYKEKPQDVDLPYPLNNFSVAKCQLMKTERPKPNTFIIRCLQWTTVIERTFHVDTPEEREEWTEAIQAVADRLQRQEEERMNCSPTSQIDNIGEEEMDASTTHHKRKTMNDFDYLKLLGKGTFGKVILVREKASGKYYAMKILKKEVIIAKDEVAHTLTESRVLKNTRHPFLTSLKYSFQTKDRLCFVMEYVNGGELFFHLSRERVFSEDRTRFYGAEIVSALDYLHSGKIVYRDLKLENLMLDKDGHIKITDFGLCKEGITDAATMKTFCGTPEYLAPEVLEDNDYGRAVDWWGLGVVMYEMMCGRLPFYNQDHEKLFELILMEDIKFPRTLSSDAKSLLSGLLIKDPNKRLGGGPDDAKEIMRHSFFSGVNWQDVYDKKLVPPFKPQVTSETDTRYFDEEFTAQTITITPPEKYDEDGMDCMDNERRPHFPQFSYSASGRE

| SMILES | pIC50 (AKT1) | pIC50 (AKT3) |
| --- | --- | --- |
| CC(C)NC[C@@H](C(=O)N1CCN(c2ncnc3c2[C@H](C)OC(=O)N3)CC1)c1ccc(Cl)cc1 (single isomer, unassigned) [Example 24 Isomer 1] | 6.45 | 7.21 |
| CC(C)NC[C@@H](C(=O)N1C[C@@H]2CN(c3ncnc4c3[C@H](C)CC(=O)N4)C[C@@H]2C1)c1ccc(Cl)cc1 [Example 13 cis-isomer, cis-(5R)-4-(5-((S)-2-(4-chlorophenyl)-3-(isopropylamino)propionyl)hexahydropyrrole[3,4-c]pyrrole-2(1H)-yl)-5-methyl-5,8-dihydropyrido[2,3-d]pyrimidin-7(6H)-one] | 6.55 | 8.18 |
| CC(C)NC[C@@H](C(=O)N1CCN(c2ncnc3c2[C@H](C)CC(=O)N3)C[C@H]1C)c1ccc(Cl)cc1 [Example 8, (R)-4-((R)-4-((S)-2-(4-chlorophenyl)-3-(isopropylamino)propionyl)-3-methylpiperazin-1-yl)-5-methyl-5,8-dihydropyrido[2,3-d]pyrimidin-7(6H)-one] | 7.54 | 8.57 |
| CC(C)NC[C@@H](C(=O)N1CCN(c2ncnc3c2C[C@@H](C)C(=O)N3)CC1)c1ccc(Cl)cc1 (single isomer, unassigned) [Example 19 Isomer 1] | 7.09 | 7.74 |
| CC(C)NC[C@@H](C(=O)N1CCN(c2ncnc3c2N(C)C(=O)CN3)CC1)c1ccc(Cl)cc1 [Example 35, (S)-4-(4-(2-(4-chlorophenyl)-3-(isopropylamino)propionyl)piperazin-1-yl)-5-methyl-7,8-dihydropteridine-6(5H)-one] | 6.84 | 6.67 |
| CC(C)NC[C@@H](C(=O)N1CCN(c2ncnc3c2[C@@H](C)OC(=O)N3)[C@@H]2C[C@@H]21)c1ccc(Cl)cc1 (single isomer, unassigned) [Example 34 Isomer 2] | 6.21 | 7.05 |
| CC(C)NC[C@@H](C(=O)N1CC2CCC(C1)N2c1ncnc2c1[C@H](C)CC(=O)N2)c1ccc(Cl)cc1 [Example 11, (R)-4-(3-((S)-2-(4-chlorophenyl)-3-(isopropylamino)propionyl)-3,8-diazabicyclo[3.2.1]octan-8-yl)-5-methyl-5,8-dihydropyrido[2,3-d]pyrimidin-7(6H)-one] | 8.46 | 9.60 |
| CC(C)NC[C@@H](C(=O)N1CC2CCC(C1)N2c1ncnc2c1N(C)CC(=O)N2)c1ccc(Cl)cc1 [Example 26] | 7.52 | 9.28 |
| CC(C)NC[C@@H](C(=O)N1CCN(c2ncnc3c2[C@H](C)OC(=O)N3)[C@@H]2C[C@@H]21)c1ccc(Cl)cc1 (single isomer, unassigned) [Example 34 Isomer 1] | 6.73 | 7.35 |
| CC(C)NC[C@@H](C(=O)N1CCN(c2ncnc3c2CC(C)C(=O)N3)CC1)c1ccc(Cl)cc1 (stereo partly drawn) [Example 19, 4-(4-((S)-2-(4-chlorophenyl)-3-(isopropylamino)propionyl)piperazin-1-yl)-6-methyl-5,8-dihydropyrido[2,3-d]pyrimidin-7(6H)-one hydrochloride] | 7.23 | 8.13 |
| CC(C)NC[C@@H](C(=O)N1CCN(c2ncnc3c2[C@H](C)CC(=O)N3)CC12CC2)c1ccc(Cl)cc1 [Example 12, (R)-4-(4-((S)-2-(4-chlorophenyl)-3-(isopropylamino)propionyl)-4,7-diazaspiro[2.5]octan-7-yl)-5-methyl-5,8-dihydropyrido[2,3-d]pyrimidin-7(6H)-one] | 7.26 | 8.32 |
| CC(C)NC[C@@H](C(=O)N1CCN(c2ncnc3c2[C@H]2C[C@H]2C(=O)N3)CC1)c1ccc(Cl)cc1 (single isomer, unassigned) [Example 40 Isomer 2] | 7.09 | 7.21 |
| CC(C)NC[C@@H](C(=O)N1CCN(c2ncnc3c2CCC(=O)N3)CC1)c1ccc(Cl)cc1 [Example 3, (S)-4-(4-(2-(4-chlorophenyl)-3-(isopropylamino)propionyl)piperazin-1-yl)-5,8-dihydropyrido[2,3-d]pyrimidin-7(6H)-one] | 7.28 | 8.12 |
| CC(C)NC[C@@H](C(=O)N1CCN(c2ncnc3c2[C@@H](C(F)(F)F)CC(=O)N3)CC1)c1ccc(Cl)cc1 (single isomer, unassigned) [Example 16 Isomer 1] | 6.11 | 6.86 |
| CC(C)NC[C@@H](C(=O)N1CCN(c2ncnc3c2[C@H](C)CC(=O)N3)[C@H](C)C1)c1ccc(Cl)cc1 [Example 7, (R)-4-((R)-4-((S)-2-(4-chlorophenyl)-3-(isopropylamino)propionyl)-2-methylpiperazin-1-yl)-5-methyl-5,8-dihydropyrido[2,3-d]pyrimidin-7(6H)-one] | 7.58 | 8.13 |

Next, values leading:

| pIC50 (AKT1) | pIC50 (AKT3) | SMILES |
| --- | --- | --- |
| 8.82 | 9.72 | CC(C)NC[C@@H](C(=O)N1CCN(c2ncnc3c2[C@H](C)OC(=O)N3)CC1)c1ccc(Cl)cc1 (single isomer, unassigned) [Example 23 Isomer 1] |
| 8.22 | 8.92 | CC(C)NC[C@@H](C(=O)N1CCN(c2ncnc3c2C(C)OC(=O)N3)CC1)c1ccc(Cl)cc1 (stereo partly drawn) [Example 23, 5-(4-((S)-2-(4-chlorophenyl)-3-(isopropylamino)propionyl)piperazin-1-yl)-4-methyl-1,4-dihydro-2H-pyrimido[4,5-d][1,3]oxazin-2-one formate] |
| 9.20 | 9.39 | CC(C)NC[C@@H](C(=O)N1C2CCC1CN(c1ncnc3c1[C@H](C)OC(=O)N3)C2)c1ccc(Cl)cc1 (single isomer, unassigned) [Example 32 Isomer 1] |
| 8.96 | 9.40 | CC(C)NC[C@@H](C(=O)N1CCN(c2ncnc3c2N(C)CC(=O)N3)CC1)c1ccc(Cl)cc1 [Example 20, (S)-4-(4-(2-(4-chlorophenyl)-3-(isopropylamino)propionyl)piperazin-1-yl)-5-methyl-5,8-dihydropteridine-7(6H)-one hydrochloride] |
| 7.66 | 9.32 | CC(C)NC[C@@H](C(=O)N1CCN(c2ncnc3c2N(C)CC(=O)N3)[C@H]2C[C@H]21)c1ccc(Cl)cc1 (single isomer, unassigned) [Example 27 Isomer 1] |
| 8.80 | 9.70 | CC(C)NC[C@@H](C(=O)N1CC2CCC(C1)N2c1ncnc2c1[C@H](C)OC(=O)N2)c1ccc(Cl)cc1 (single isomer, unassigned) [Example 33 Isomer 1] |
| 7.85 | 7.92 | CC(C)NC[C@@H](C(=O)N1CCN(c2ncnc3c2[C@@H]2C[C@@H]2C(=O)N3)CC1)c1ccc(Cl)cc1 (single isomer, unassigned) [Example 40 Isomer 1] |
| 7.60 | 8.04 | CC(C)NC[C@@H](C(=O)N1CCN(c2ncnc3c2C[C@H](C)C(=O)N3)CC1)c1ccc(Cl)cc1 (single isomer, unassigned) [Example 19 Isomer 2] |
| 8.62 | 8.80 | CC(C)NC[C@@H](C(=O)N1CCN(c2ncnc3c2C(C)CC(=O)N3)CC1)c1ccc(Cl)cc1 (stereo partly drawn) [Example 1, 4-(4-((S)-2-(4-chlorophenyl)-3-(isopropylamino)propionyl)piperazin-1-yl)-5-methyl-5,8-dihydropyrido[2,3-d]pyrimidin-7(6H)-one] |
| 7.60 | 8.01 | CC(C)NC[C@@H](C(=O)N1C2CCC1CN(c1ncnc3c1[C@@H](C)OC(=O)N3)C2)c1ccc(Cl)cc1 (single isomer, unassigned) [Example 32 Isomer 2] |
